The test system of one data set is APPSwe mice. The data set is described as follows: Spontaneous alternation in Y-maze, transgenic APPSwe mice, chronic treatment. The data set is classed as in vivo. As to conditions: for alternation deficit of APPSwe animals: 1 mg/kg/d. The procedure: FIG. 8: Spontaneous alternation (a, b) and total number of arm entries (c, d) of APPSwe mice given compound 3b, in the Y-maze, after treatment of one month (a, c) and 2 months (b, d). The animals were given compound 3b (0.7 or 2 mg/kg IP) 3 times per week for 1 or 2 months. N=6-15 per group. ANOVA: F(5.49)=3.84, p<0.01 at (a); F(5.54)=1.54, p>0.05 at (b); F<1 at (c) et (d). *p<0.05, **p<0.01 compared with group (WT+V); #p<0.05 compared with group (APPSwe+V); Dunnett test at (a, b).
FIG. 10: Spontaneous alternation (a, b) and number of arm entries (c, d) for APPSwe mice treated with compound 3c, in the Y-maze, after treatment for 1 month (a, c) or 2 months (b, d). The animals were given compound 3c (1 mg/kg IP) 3 times per week for 1 or 2 months. N=10-13 per group. ANOVA: F(3.45)=3.61, p<0.05 at (a); F(3.38)=6.33, p<0.01 at (b); F<1 at (c) and (d). *p<0.05, ***p<0.001 compared with group WT/V; #p<0.05 compared with group APPSwe/V; Dunnett test at (a, b).
(§1) The animals were tested for spontaneous alternation performance in a Y-maze, an index of spatial working memory. The Y-maze was in grey PVC. Each arm was 40 cm long, 13 cm high, 3 cm wide at the base and 10 cm wide in the upper part, and converging at an equal angle. Each mouse was placed at one end of an arm and was able to move freely through the maze during an 8-min session. The series of arm entries, including any returns in the same arm were visually analysed. Alternation is defined as being consecutive entries in three different arms. The maximum number of alternations is therefore the total number of arm entries less two, and alternation percentage is calculated as (actual alternations/maximum possible alternations)×100. The parameters comprise the alternation percentage (memory index) and the total number of arm entries (exploratory index).
TG2576 mice, over-expressing the human amyloid precursor protein carrying the Swedish double mutation APPSwe, develop the pathology towards the age of 8-10 months and up until 15-17 months, age at which 95% of the animals show behavioural, biochemical and morphological signs of the disease. Compound 3b was administered under chronic treatment at doses of 0.7 mg/kg/d IP and then 2 mg/kg/d IP. The effect of compound 3c, at a dose of 1 mg/kg/j IP, was also documented.

The test system of data set [1] is mice treated with Aβ25-35. The data set is described as follows: Spontaneous alternation in the Y-maze, Aβ25-35 amyloid toxicity model. Format: in vivo. As to conditions: for active dose (neuroprotective effects): non-transgenic AD model, ICV Aβ25-35 in mice. The procedure: Male mice (RjOrl:SWISS) from Janvier laboratories (Le Genest-Saint-Isle, France), aged 7-9 weeks and weighing 32±2 g were used for this study. The animals were grouped in plastic cages with free access to the […] and water, in a regulated environment (23±1° C., humidity 40-60%, 12 h light/dark cycle).
The compounds were solubilized in physiological saline solution (0.9% NaCl) or in dimethylsulfoxide (DMSO) 10% in the saline solution and administered via intraperitoneal route (IP) in a volume of 100 μl per 20 g body weight.
The amyloid-β[25-35] peptide (Aβ25-35) and control peptide (Sc.Aβ) were obtained from Genepep (Saint-Jean-de-Vedas, France). They were solubilized in injectable distilled water at a concentration of 3 mg/ml and stored at −20° C. Before injection, the peptides were incubated at 37° C. for 4 days, which enabled the Aβ25-35 peptide but not the Sc.Aβ, to form oligomers. They were administered via intracerebroventricular route (ICV). The animals were anesthetized by inhaling 2.5% isoflurane (TEM) and were given 3 μl of peptide solution via direct ICV route (Haley and McCormick's method). For injection a 10 μl Hamilton micro-syringe was used at a flow rate of 1 μl/min.
as §1
[…] After one week, the animals were tested for behavioural performance, then sacrificed and the brain dissected for biochemical analyses.
On Day 7, after the injections of 3b and amyloid peptide, the mice were tested for their ability to alternate in the Y-maze, a spatial working memory test. […] The mice were then tested for passive avoidance response, a long-term non-spatial memory test. with training on Day 8 and recall on Day 9 after the injections (FIG. 1c).

SMILES strings stand for the structures.

As to `CC1(C)COP(=O)(c2ccc(Cl)cc2)C(C)(C)N1` (racemic) [Compound 3c, (±)-2-(4-Chlorophenyl)-2-oxo-3,3,5,5-tetramethyl-[1,4,2]-oxazaphosphinane], the “alternation deficit of APPSwe animals” value in the data set with APPSwe mice (1 month) was “attenuated”; in the data set on APPSwe mice (2 months), “significantly blocked”. For the same molecule, in data set [1] (0.3 mg/kg IP (range tested 0.03-0.7; only this dose efficient), Day 7), the “spontaneous alternation deficit induced by Aβ25-35 (Y-maze)” value is reported as “significantly prevents spontaneous alternation deficit”. The “active dose (neuroprotective effects)” value in data set [1] (IP) amounted to 0.3 mg/kg.

`CC1(C)COP(=O)(c2cccc(Cl)c2)C(C)(C)N1` (racemic) [Compound 3b, (±)-2-(3-Chlorophenyl)-2-oxo-3,3,5,5-tetramethyl-[1,4,2]-oxazaphosphinane]: the “alternation in the WT animals” value in the data set on APPSwe mice (lowest dose (0.7 mg/kg/d), 2 months) was “appears to impact alternation”. Moreover, the “spontaneous alternation performance of wild-type control animals” value in the data set on APPSwe mice (treatment for one month, 0.7 or 2 mg/kg IP) is listed as “does not affect the performance”. Besides, the “active dose (neuroprotective effects)” value in data set [1] (IP) is reported as 0.7 mg/kg. The minimum active dose in data set [1] (dose-dependent experiments, Aβ25-35 model, IP) is listed as 0.7 mg/kg.

Values taken from patent US10947260B2, “Phosphinolactone derivatives and pharmaceutical uses thereof” (INSTITUT NATIONAL DE LA SANTE ET DE LA RECHERCHE MEDICALE …, priority 2016, dated 2021).
